Data set [1] deals with α7A integrin. Description: Western blotting of α7A integrin in α7+/− myotubes. Type of data set: cell-based, mouse. The note with it: 2 mM VPA for 72 hours. As to the method: (§1) α7^+/− myogenic cells were cultured on 1% gelatin-coated plastic plates in Ham's F-10 growth medium (20% FBS, 0.5% chick embryo extract, 5 ng/ml bFGF, 2 mM glutamine, 100 U/ml penicillin and 100 μg/ml streptomycin). After six passages, cells were grown in DMEM containing 20% FBS, 0.5% chick embryo extract, 2 mM glutamine, 100 U/ml penicillin and 100 μg/ml streptomycin. Differentiation was induced by switching the medium to DMEM containing 2% horse serum and antibiotics when cells attained 90% confluence. After 48 hours of differentiation, 2 mM VPA was added and supplied fresh every 24 hours. Wortmannin was used at 100 nM and added fresh every 24 hours.
(§2) Cell lysates of differentiating cells on 60 mm dishes were prepared as follows: the cells were washed twice with PBS and 200 μl Triton X-100 lysis buffer (2% Triton X-100, 20 mM Tris-Cl, pH 7.4, 150 mM NaCl, 1 mM EDTA, 1 mM EGTA, 2.5 mM NaPPi, 1 mM β-glycerophosphate, 1 mM sodium vanadate, 1:200 Protease Inhibitor Cocktail (EMD Chemicals, San Diego, Calif.) and 1 mM PMSF) were added. […] Protein concentrations were determined by the Bradford assay. […] The supernatants were collected and protein concentrations were determined spectrophotometrically at OD260 and OD280. […] ImageQuant analysis software (Molecular Dynamics, Sunnyvale, Calif.) was used to quantify band intensity.

Data set [2] deals with α7B integrin. As to the kind of experiment: Western blotting of α7B integrin in α7+/− myotubes. The data set is classed as cell-based, mouse. The conditions noted are these: 2 mM VPA for 72 hours. As to the method: as §1, §2
A general note: Immunoblotting shows a protein as a band on a membrane.

The test system of data set [3] is α7+/− myotubes. Description: Quantification of apoptosis in myotubes (TUNEL assay). The data set is classed as cell-based, mouse. The procedure:
Differentiating cultures of α7^+/− cells on 1% gelatin-coated Lab-Tek 8-well chamber slides (Nalge-Nunc International) were exposed to 2 mM VPA on day two of differentiation, and fresh VPA in differentiation medium was added every 24 hours. On day eight of differentiation, the DeadEnd Fluorometric TUNEL assay (Promega) was used to label apoptotic nuclei, following the manufacturer's instructions. The numbers of clusters of apoptotic nuclei in each chamber were counted.

Data set [4] has as its system mdx/utrn−/− mice. As to the kind of experiment: Contracture assay in mdx/utrn−/− mice. Type of data set: in vivo, mouse. The conditions noted are these: 35th day of treatment. The procedure:
mdx/utrn−/− mice lack both dystrophin and utrophin, and were bred and genotyped as reported in Burkin, et al., Enhanced expression of the alpha 7 beta 1 integrin reduces muscular dystrophy and restores viability in dystrophic mice, J. Cell Biol. 152:1207-18 (2001). 240 mg/kg body weight of VPA was injected intraperitoneally twice daily into mdx/utrn^−/− mice (n=9) starting at 3 weeks of age, for a period of 5 weeks. Control mice were injected with saline (n=9). Body-weights were determined daily. On the 35th day of treatment, mdx/utrn^−/− mice injected with saline (n=9) or VPA (n=9) were tested for contractures in their hind limbs as follows: mice were placed on a flat table and were lifted by their tails so that their fore-limbs touched the table-surface and their hindquarters were in air. The positions of the hind-limbs were photographed. Normally, mice in this position extend their hind-limbs. The presence of contractures in dystrophic mice prevents full extension.

The subject of data set [5] is mdx/utrn−/− mice. Description: Masson's trichrome staining of quadriceps cryosections. Type of data set: in vivo, mouse. The note with it: 240 mg/kg i.p. twice daily for 5 weeks. As to the method:
mdx/utrn−/− mice lack both dystrophin and utrophin, and were bred and genotyped as reported in Burkin, et al., Enhanced expression of the alpha 7 beta 1 integrin reduces muscular dystrophy and restores viability in dystrophic mice, J. Cell Biol. 152:1207-18 (2001). 240 mg/kg body weight of VPA was injected intraperitoneally twice daily into mdx/utrn^−/− mice (n=9) starting at 3 weeks of age, for a period of 5 weeks. Control mice were injected with saline (n=9). Body-weights were determined daily. Masson's trichrome staining kit (American MasterTech Scientific Inc., Lodi, Calif.) was used to stain 8 μm muscle cryosections, as per the manufacturer's instructions.

Data set [6] has as its system type VI collagen. Description: Western blotting of type VI collagen in quadriceps. The data set is classed as in vivo, mouse. The note with it: 240 mg/kg i.p. twice daily for 5 weeks. The procedure:
(§3) mdx/utrn−/− mice lack both dystrophin and utrophin, and were bred and genotyped as reported in Burkin, et al., Enhanced expression of the alpha 7 beta 1 integrin reduces muscular dystrophy and restores viability in dystrophic mice, J. Cell Biol. 152:1207-18 (2001). 240 mg/kg body weight of VPA was injected intraperitoneally twice daily into mdx/utrn^−/− mice (n=9) starting at 3 weeks of age, for a period of 5 weeks. Control mice were injected with saline (n=9). Body-weights were determined daily.
as §2, with “added. The cells were scraped and transferred into Eppendorf tubes, the cell suspensions were triturated and centrifuged at 8000×g at 4° C. for 10 minutes, and the supernatants were collected.” for “added.”

Data set [7] relates to α7 integrin. Description: Western blotting of α7 integrin in muscle extracts of mdx/utrn−/− mice. Type of data set: in vivo, mouse. The note with it: 240 mg/kg i.p. twice daily for 5 weeks. As to the method:
as §3
as §2, with “added. The cells were scraped and transferred into Eppendorf tubes, the cell suspensions were triturated and centrifuged at 8000×g at 4° C. for 10 minutes, and the supernatants were collected.” for “added.”

For data set [8] the following is noted: mice; cited from earlier work.
For data set [9] the following is noted: humans; cited from earlier work.

Each structure is given as a SMILES string.

For the compound `CCCC(CCC)C(=O)O` [VPA, valproic acid], the “α7A integrin isoform increase” value in data set [1] came to 2 fold. Further, the “α7B integrin isoform increase” value in data set [2] stood at 1.5 fold. For the same compound, the “fewer apoptotic nuclei (TUNEL positive nuclear clusters) compared with control cells” value in data set [3] (2 mM VPA from day 2 of differentiation, day 6 of treatment) is reported as “greater than 5 fold”. The “appearance of cultures after day 8 (controls vacuolated, some detachment)” value in data set [3] (2 mM VPA, phase-contrast) is listed as “appeared relatively normal”. The “proportion of mice with contractures” value in data set [4] (240 mg/kg i.p. twice daily, n=9) is listed as 11.1%. For the same compound, the “proportion with contractures, saline-injected group higher compared to VPA-injected group” value in data set [4] is reported as “approximately 4 fold”. Also, in data set [5], the “collagen staining in quadriceps compared to controls” value is “lower intensity of collagen staining”. Moreover, the “less type VI collagen in muscle than control mice” value in data set [6] is “approximately 3 fold”. Moreover, the “α7 integrin in muscle extracts, saline versus VPA injected mice” value in data set [7] is listed as “did not show changes”. Moreover, the half-life entry in [8] is given as “about 45 minutes”. In addition, the half life entry in data set [9] was “approximately 14 hours”.

Source of the values: patent US20120003191A1, “VALPROIC ACID, DERIVATIVES, ANALOGUES, AND COMPOSITIONS INCLUDING SAME AND METHODS FOR THEIR THERAPEUTIC USE” (priority 2009, published 2012).
